Assay results as given in ChEMBL document CHEMBL3785011, “New IKK inhibitors: Synthesis of new imidazo[1,2-a]quinoxaline derivatives using microwave assistance and biological evaluation as IKK inhibitors” (Eur J Med Chem, 2016).
Activity calls are given as the source filed them. No cut-off for these calls is given here.

Assays:
[1] = molecular target: T1, Inhibitor of nuclear factor kappa-B kinase subunit alpha (Homo sapiens) (UniProt O15111); test: Inhibition of human recombinant His tagged IKK1 expressed in baculovirus at 10 uM after 60 mins by Adapta assay
T1 sequence (whole entry): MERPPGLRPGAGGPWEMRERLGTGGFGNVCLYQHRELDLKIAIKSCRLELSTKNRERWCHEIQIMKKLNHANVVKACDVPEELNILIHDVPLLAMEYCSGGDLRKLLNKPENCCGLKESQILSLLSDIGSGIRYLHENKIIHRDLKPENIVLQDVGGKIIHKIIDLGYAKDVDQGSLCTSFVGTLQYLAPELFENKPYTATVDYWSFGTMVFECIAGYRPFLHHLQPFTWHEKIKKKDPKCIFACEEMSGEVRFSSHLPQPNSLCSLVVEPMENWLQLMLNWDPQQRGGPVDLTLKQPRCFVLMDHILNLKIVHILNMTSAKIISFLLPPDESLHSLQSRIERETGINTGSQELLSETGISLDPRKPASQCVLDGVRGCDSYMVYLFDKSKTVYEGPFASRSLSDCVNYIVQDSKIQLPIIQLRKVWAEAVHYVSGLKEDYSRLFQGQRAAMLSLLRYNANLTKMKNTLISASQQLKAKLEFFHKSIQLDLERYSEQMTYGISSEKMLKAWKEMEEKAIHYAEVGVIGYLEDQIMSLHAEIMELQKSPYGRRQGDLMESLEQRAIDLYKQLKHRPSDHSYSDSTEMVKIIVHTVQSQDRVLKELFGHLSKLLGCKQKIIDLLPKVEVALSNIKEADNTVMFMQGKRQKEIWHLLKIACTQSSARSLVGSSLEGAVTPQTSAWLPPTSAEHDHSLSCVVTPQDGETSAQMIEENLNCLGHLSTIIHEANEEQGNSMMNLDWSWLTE

[2] = molecular target: T2, Inhibitor of nuclear factor kappa-B kinase subunit beta (Homo sapiens) (UniProt O14920); test: Inhibition of human recombinant GST tagged IKK2 expressed in baculovirus using Ser/Thr05 peptide as substrate at 10 uM after 60 mins by Z-LYTE assay
T2 sequence (whole entry): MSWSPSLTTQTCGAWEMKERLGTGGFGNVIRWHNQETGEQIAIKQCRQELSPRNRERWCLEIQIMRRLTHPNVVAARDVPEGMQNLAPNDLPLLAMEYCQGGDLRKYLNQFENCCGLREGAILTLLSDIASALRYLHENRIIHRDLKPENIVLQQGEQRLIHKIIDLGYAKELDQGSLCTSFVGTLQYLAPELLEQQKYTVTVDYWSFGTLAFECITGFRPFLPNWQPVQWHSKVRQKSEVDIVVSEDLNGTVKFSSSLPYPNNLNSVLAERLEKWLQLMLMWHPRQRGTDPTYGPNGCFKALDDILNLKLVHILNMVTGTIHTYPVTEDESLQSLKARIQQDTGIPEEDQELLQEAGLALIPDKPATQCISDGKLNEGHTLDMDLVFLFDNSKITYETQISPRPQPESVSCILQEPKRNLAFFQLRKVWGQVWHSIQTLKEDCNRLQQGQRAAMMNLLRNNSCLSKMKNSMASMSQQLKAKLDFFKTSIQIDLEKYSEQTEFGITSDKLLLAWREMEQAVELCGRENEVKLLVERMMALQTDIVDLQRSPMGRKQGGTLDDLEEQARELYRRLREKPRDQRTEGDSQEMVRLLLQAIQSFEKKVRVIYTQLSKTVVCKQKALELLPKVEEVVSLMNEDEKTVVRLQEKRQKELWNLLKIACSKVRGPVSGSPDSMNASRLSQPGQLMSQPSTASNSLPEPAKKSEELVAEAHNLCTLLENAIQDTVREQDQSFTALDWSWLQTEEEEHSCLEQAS

[3] = molecular target: T3, Inhibitor of nuclear factor kappa-B kinase subunit beta (Homo sapiens, UniProt O14920); test: Inhibition of human recombinant GST tagged IKK2 expressed in baculovirus using Ser/Thr05 peptide as substrate after 60 mins by Z-LYTE assay
T3 sequence (O14920 whole entry): T2 sequence (whole entry)

Row | SMILES | inhibition [1] | inhibition [2] | IC50 [3]
1 | CNc1nc2ccccc2n2c(Br)cnc12 | 23% | 60% | –
2 | CNc1nc2ccc(C)cc2n2ccnc12 | 9% | 64% | 579 nM
3 | CNc1nc2ccccc2n2c(C)cnc12 | 7% | 61% | –
4 | CNc1nc2ccccc2n2ccnc12 | 7% | 54% | –
5 | CNc1nc2cc(C)ccc2n2ccnc12 | 9% | 50% | –
6 | CNc1nc2ccc(C)cc2n2c(C)cnc12 | 1% | 65% | 773 nM
7 | Cc1ccc2nc(NCCN)c3ncc(C)n3c2c1 | 8% | 64% | –
8 | CNc1nc2ccc(C)cc2n2c(-c3cccc(OC)c3)cnc12 | 3% | 3% | –
9 | CNc1nc2cc(C)ccc2n2c(-c3cccc(OC)c3)cnc12 | 7% | inactive | –

Continued, values first:

Row | inhibition [1] | inhibition [2] | IC50 [3] | SMILES
10 | 19% | 57% | – | CNc1nc2cc(C)ccc2n2c(C)cnc12
11 | 26% | 54% | – | CNc1nc2cc(C)ccc2n2c(Br)cnc12
12 | 13% | 2% | – | CNc1nc2ccccc2n2c(-c3cccc(OC)c3)cnc12
13 | 13% | 72% | 324 nM | CNc1nc2ccc(C)cc2n2c(Br)cnc12
